Results from patent US20020022587A1, “Methods for effecting neuroprotection” (priority 2000, published 2002).

Legend:
[1] = test system: magnocellular neurons of the paraventricular nucleus (PVN); assay: NMDA agonist excitotoxicity after PVN microinjection, histological count of surviving magnocellular neurons, Sprague-Dawley rats; type: in vivo, rat; details: counted three days later
Experimental: Experiments were performed on male Sprague-Dawley rats (150-525 g. Charles River, P.Q., Canada). The animals were anesthetized with sodium pentobarbitol (65 mg/kg, ip), placed in a stereotaxic frame and the skull exposed, and a small burr hole drilled in the skull such that a cannula electrode (tip diameter 150 μm) could be advanced into the region of the PVN according to the coordinates of Paxinos and Watson (−0.9 mm Bregma, 0.5 mm lateral, 7.5 mm ventral) (Paxinos and Watson, The Rat Brain in Stereotaxic Coordinates, Academic Press, New York (1982)). Each animal received a 1.0 μl microinjection to each PVN (2×0.5 μl) according to one of the following protocols, saline/saline, saline/NMDA, 4-AP/saline, 4-AP/NMDA, angiotensin-II/saline, angiotensin-II/NMDA, saralasin (SAR)/NMDA. The incision was then closed and the animal received the analgesic Buprenorphin (0.03 mg/kg, SQ) to aid postoperative recovery. Animals were allowed to recover for three days after which they were overdosed with sodium pentobarbitol (100 mg/kg) and perfused with 0.9% saline followed by 10% formalin through the left ventricle of the heart. The brain was removed, placed in formalin overnight at […]. The brain was then cut into a smaller block contained PVN and stored in a 30% sucrose, 0.1 M phosphate buffer at 4° C. for at least two days.
The blocks were mounted, covered with Tissue-Tek O.C.T. compound (Sakura) and flash frozen in 2-methyl butane (cooled by dry ice) for 45 seconds. Using the Frigocut 280 (Reichart Jung), 20 μm coronal sections were cut through the area of PVN. These sections were mounted and cresyl violet stained. The histological locations of the microinjection sites were verified at the light microscope level by an observer unaware of the experimental conditions. Only those animals with microinjection within the boundaries of PVN were further analyzed.
Magnocellular neurons were differentiated from parvocellular neurons and cellular material by specific morphological characteristics (Sawchenko and Swanson, J. Comp. Neuro. 218:121-44 (1983)). In addition to the anatomical location of the neuron within PVN, morphological size was used to further characterize neuronal type. Neurons with soma diameter of approximately 20-25 μm and intact nuclei were characterized as viable magnocellular neurons. Neurons with soma diameter of between 15 and 20 μm were not included in the study, as they could not be reliably classified as belonging to either subpopulation. Histological sections were viewed under high magnification (40×) at the light microscope level and a grid was superimposed over each area of PVN. […] Comparative analyses were performed whereby neurons were counted in 20 μm sections following the initial emergence of PVN. […]

[2] = test system: parvocellular neurons of the paraventricular nucleus (PVN); assay: NMDA agonist excitotoxicity after PVN microinjection, histological count of surviving parvocellular neurons, Sprague-Dawley rats; type: in vivo, rat
Experimental: Experiments were performed on male Sprague-Dawley rats (150-525 g. Charles River, P.Q., Canada). The animals were anesthetized with sodium pentobarbitol (65 mg/kg, ip), placed in a stereotaxic frame and the skull exposed, and a small burr hole drilled in the skull such that a cannula electrode (tip diameter 150 μm) could be advanced into the region of the PVN according to the coordinates of Paxinos and Watson (−0.9 mm Bregma, 0.5 mm lateral, 7.5 mm ventral) (Paxinos and Watson, The Rat Brain in Stereotaxic Coordinates, Academic Press, New York (1982)). Each animal received a 1.0 μl microinjection to each PVN (2×0.5 μl) according to one of the following protocols, saline/saline, saline/NMDA, 4-AP/saline, 4-AP/NMDA, angiotensin-II/saline, angiotensin-II/NMDA, saralasin (SAR)/NMDA. […]
The blocks were mounted, covered with Tissue-Tek O.C.T. compound (Sakura) and flash frozen in 2-methyl butane (cooled by dry ice) for 45 seconds. […] Only those animals with microinjection within the boundaries of PVN were further analyzed.
Magnocellular neurons were differentiated from parvocellular neurons and cellular material by specific morphological characteristics (Sawchenko and Swanson, J. Comp. Neuro. 218:121-44 (1983)). […] Comparative analyses were performed whereby neurons were counted in 20 μm sections following the initial emergence of PVN. […]

[3] = test system: outwardly rectifying whole-cell K+ current of isolated PVN neurons; assay: Voltage clamp recordings from dissociated PVN neurons, voltage ramps; type: cell-based, rat; details: voltage ramps 100 mV/sec
Experimental: Male, Sprague-Dawley rats (150-250 g, Charles River, P.Q., Canada) were killed by decapitation, the brain was removed quickly from the skull and immersed in cold (1-4° C.) artificial cerebrospinal fluid (aCSF). The brain was blocked and 400 μm hypothalamic slices, which included the PVN, were prepared as described in Bains and Ferguson (NeuroReport 8(9-10):2101-05 (1997)). Slices were incubated in oxygenated aCSF (95% O2, 5% CO2) for at least 90 minutes at room temperature. Twenty minutes prior to recording, the slice was transferred into a modified interface type recording chamber and continuously perfused with aCSF at a rate of 1 ml/min.
For isolated neurons, pipettes of 1-4 MΩ were filled with a pipette solution containing (in mM): potassium-gluconate (130), EGTA(10), MgCl2 (1), HEPES (10), Na2ATP (4), GTP (0.1), adjusted to pH 7.2 with KOH. The standard bath solution contained (inmM): NaCl (140), KCl (5), MgCl2 (1), CaCl2 (2), HEPES (10), glucose (10) and […] tetrodotoxin (TTX) (Alamone Labs, Jerusalem, Israel). Signals were amplified, collected and processed using an Axopatch 200B (Axon Instruments) amplifier, a 1401plus A-D interface and Signal software from C.E.D. […]

[4] = test system: magnocellular neurons of the paraventricular nucleus (PVN); assay: NMDA agonist excitotoxicity after PVN microinjection, surviving magnocellular neurons, spontaneously hypertensive rats; type: in vivo, rat
Text: (§1) To determine whether magnocellular neurons in hypertensive rats with increased central angiotensin-II lose their resistance to excitotoxins as a consequence of endogenous angiotensin-II inhibiting the transient K^+ conductance, NMDA agonist or vehicle control was microinjected into PVN and surviving neurons were counted three days later. Following such treatment, a similar loss of parvocellular neurons to that found in normotensive animals was observed (82±2% surviving), while the resistance of magnocellular neurons was no longer observed in these animals (71±5% surviving) (see FIG. 3 for specific N values). To confirm that angiotensin-II was responsible for this loss of resistance, the NMDA agonist was next microinjected into PVN of spontaneously hypertensive rats immediately following the angiotensin-II receptor antagonist saralasin. […] These findings provide the first direct evidence that elevated angiotensin-II concentrations in the central nervous system of hypertensive animals may contribute to the increased susceptibility for stroke and that these actions can be prevented by central angiotensin-II receptor blockade. […]
(§2) The blocks were mounted, covered with Tissue-Tek O.C.T. compound (Sakura) and flash frozen in 2-methyl butane (cooled by dry ice) for 45 seconds. […] Only those animals with microinjection within the boundaries of PVN were further analyzed. […]

[5] = test system: parvocellular neurons of the paraventricular nucleus (PVN); assay: NMDA agonist excitotoxicity after PVN microinjection, surviving parvocellular neurons, spontaneously hypertensive rats; type: in vivo, rat; details: NMDA agonist alone into PVN, counted three days later
Text: as §1, §2

[6] = Li et al., Brain Res. Bull. 30:33-39 (1993); cited from earlier work
[7] = substance microinjected into PVN prior to NMDA agonist
[8] = substance microinjected into PVN alone

Nc1ccncc1 [4-AP, 4-aminopyridine]
proportion of magnocellular neurons surviving [1, 7]: 78.9±4.6%
effect of 4-AP on parvocellular neuron population ([2]; 4-AP pretreatment before NMDA agonist microinjection): no significant effect
proportion of parvocellular neurons surviving ([2]; NMDA agonist microinjection, PVN treated with 4-AP): 80.9±3.0%
inhibition of outwardly rectifying whole-cell current ([3]; 100 μM): inhibited

N[C@@H](C(=O)O)c1nnn[nH]1 [NMDA agonist, D-1-tetrazol-5yl-glycine]
proportion of magnocellular neurons surviving [1, 8]: 100.0±2.4%
magnocellular neurons surviving ([4]; hypertensive rats, NMDA agonist alone into PVN, counted three days later): 71±5%
parvocellular neurons surviving [5]: 82±2%

CNCC(=O)N[C@@H](CCCN=C(N)N)C(=O)N[C@H](C(=O)N[C@@H](Cc1ccc(O)cc1)C(=O)N[C@H](C(=O)N[C@@H](Cc1cnc[nH]1)C(=O)N1CCC[C@H]1C(=O)N[C@@H](C)C(=O)O)C(C)C)C(C)C [saralasin, Sar^1Ala^8-angiotensin-II]
effect on cell viability ([4]; SHR PVN, saralasin by itself): no effect
crossing of the blood-brain barrier [6]: does not cross the blood-brain barrier

a-dendrotoxin [a-DTX]
inhibition of outwardly rectifying whole-cell current, compared with 100 μM 4-AP ([3]; 1 μM): to an equal degree

angiotensin-II: octapeptide hormone, end product of the RAS, powerful arterial vasoconstrictor
proportion of magnocellular neurons surviving [1, 8]: 97.4±4.2%
proportion of magnocellular neurons surviving [1, 7]: 80.8±3.75%
